Reference: ChEMBL document CHEMBL1127434, “Discovery of nanomolar ligands for 7-transmembrane G-protein-coupled receptors from a diverse N-(substituted)glycine peptoid library” (J Med Chem, 1994)

How the values were obtained:
[1] = target: Mu-type opioid receptor (Rattus norvegicus, UniProt P33535); assay: Compound was evaluated for binding affinity towards mu-specific opiate receptor from rat brain membrane using [3H]DAMGO
[2] = target: T1, Adrenergic receptor alpha-1 (Rattus norvegicus, UniProt P15823+P23944+P43140); assay: Compound was evaluated for its binding affinity against alfa1 adrenergic receptors.; assay type: protein assay
T1 sequence (P15823 whole entry): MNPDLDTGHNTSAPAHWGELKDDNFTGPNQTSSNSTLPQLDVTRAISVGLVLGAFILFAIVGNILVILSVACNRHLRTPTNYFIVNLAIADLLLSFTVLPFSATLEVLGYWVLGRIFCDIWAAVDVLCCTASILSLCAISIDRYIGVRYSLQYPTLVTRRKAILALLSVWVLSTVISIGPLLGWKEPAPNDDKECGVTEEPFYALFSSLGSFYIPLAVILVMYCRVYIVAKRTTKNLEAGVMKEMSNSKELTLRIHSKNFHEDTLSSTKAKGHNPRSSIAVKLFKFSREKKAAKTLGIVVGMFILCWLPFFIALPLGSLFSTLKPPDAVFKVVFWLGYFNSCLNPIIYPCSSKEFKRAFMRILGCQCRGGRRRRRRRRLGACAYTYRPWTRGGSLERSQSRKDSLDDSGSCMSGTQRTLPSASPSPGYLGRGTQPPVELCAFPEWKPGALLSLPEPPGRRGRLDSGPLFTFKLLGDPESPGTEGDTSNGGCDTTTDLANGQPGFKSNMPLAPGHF
T1 sequence (P23944 whole entry): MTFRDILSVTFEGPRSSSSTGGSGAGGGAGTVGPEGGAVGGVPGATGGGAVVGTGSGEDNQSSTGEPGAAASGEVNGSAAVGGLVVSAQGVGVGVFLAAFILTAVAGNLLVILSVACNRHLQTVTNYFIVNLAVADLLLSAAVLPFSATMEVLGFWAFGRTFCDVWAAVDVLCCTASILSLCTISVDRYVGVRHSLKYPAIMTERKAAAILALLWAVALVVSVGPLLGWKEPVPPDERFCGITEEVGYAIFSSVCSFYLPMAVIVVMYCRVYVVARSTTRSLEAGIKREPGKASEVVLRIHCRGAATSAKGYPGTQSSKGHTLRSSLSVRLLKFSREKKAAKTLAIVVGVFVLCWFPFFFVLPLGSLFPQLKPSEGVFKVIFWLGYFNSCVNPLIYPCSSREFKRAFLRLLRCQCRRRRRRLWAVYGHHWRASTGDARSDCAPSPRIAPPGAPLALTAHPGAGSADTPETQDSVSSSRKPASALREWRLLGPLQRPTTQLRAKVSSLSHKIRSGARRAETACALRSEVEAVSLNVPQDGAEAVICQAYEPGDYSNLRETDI
T1 sequence (P43140 whole entry): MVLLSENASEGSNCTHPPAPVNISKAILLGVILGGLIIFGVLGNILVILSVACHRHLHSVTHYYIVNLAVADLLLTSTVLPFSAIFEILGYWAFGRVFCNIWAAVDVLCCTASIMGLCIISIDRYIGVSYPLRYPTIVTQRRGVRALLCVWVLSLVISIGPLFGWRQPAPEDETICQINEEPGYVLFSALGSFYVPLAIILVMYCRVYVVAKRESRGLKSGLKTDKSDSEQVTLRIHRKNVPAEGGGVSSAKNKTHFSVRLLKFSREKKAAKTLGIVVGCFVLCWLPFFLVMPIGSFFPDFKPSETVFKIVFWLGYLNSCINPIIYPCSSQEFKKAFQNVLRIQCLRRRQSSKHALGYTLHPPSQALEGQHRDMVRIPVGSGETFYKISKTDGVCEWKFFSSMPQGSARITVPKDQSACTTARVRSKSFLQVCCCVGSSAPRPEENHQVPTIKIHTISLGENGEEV

[3] = target: T1, Adrenergic receptor alpha-1
Description: Compound was evaluated for binding affinity towards alpha-1 adrenergic receptors from combinatorial peptoid library

[4] = target: T1, Adrenergic receptor alpha-1; assay: Compound was evaluated for its binding affinity against alpha-1 adrenergic receptors; assay type: protein assay

Sequence of Mu-type opioid receptor (P33535 whole entry): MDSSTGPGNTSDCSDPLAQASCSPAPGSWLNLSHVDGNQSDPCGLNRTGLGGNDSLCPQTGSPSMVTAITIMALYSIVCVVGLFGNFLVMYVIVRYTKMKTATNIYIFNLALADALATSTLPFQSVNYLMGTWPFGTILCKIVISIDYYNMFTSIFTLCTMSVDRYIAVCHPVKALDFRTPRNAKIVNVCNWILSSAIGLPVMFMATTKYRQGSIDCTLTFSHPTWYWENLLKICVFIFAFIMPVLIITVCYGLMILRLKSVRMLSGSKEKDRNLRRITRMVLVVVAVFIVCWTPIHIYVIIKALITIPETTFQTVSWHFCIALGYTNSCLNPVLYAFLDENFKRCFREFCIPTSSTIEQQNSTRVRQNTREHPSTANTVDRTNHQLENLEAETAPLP

Q: `COc1ccc(CN(CC(=O)N(CCc2ccc(O)cc2)CC(N)=O)C(=O)CNCC(c2ccccc2)c2ccccc2)cc1OC` was tested. Which Ki [1] did it give?
A: The Ki was 0.031 µM.

Q: Which Ki [1] does the source give for `CCCCCN(CC(=O)N(CCc1ccc(O)cc1)CC(N)=O)C(=O)CNCC(c1ccccc1)c1ccccc1` here?
A: The Ki was 0.046 µM.

Q: Which Ki [2] does the source give for `NC(=O)CN(CCc1ccccc1)C(=O)CN(C(=O)CNCCc1ccc(O)cc1)c1ccc(-c2ccccc2)cc1` here?
A: Its Ki is 0.005 µM.

Q: Which Ki [1] does the source give for `NC(=O)CN(CCc1ccc(O)cc1)C(=O)CN(Cc1ccc2c(c1)OCO2)C(=O)CNCC(c1ccccc1)c1ccccc1` here?
A: Its Ki is 0.006 µM.

Q: With `NC(=O)CN(CCc1ccccc1)C(=O)CN(C(=O)CNCCc1ccccc1)c1ccc(-c2ccccc2)cc1` as the compound, how does the Ki [3] read?
A: The Ki was 0.004 µM.

Q: How did the Ki [4] turn out when `NC(=O)CN(C(=O)CN(C(=O)CNCCc1ccc(O)cc1)c1ccc(-c2ccccc2)cc1)c1ccc(-c2ccccc2)cc1` was run?
A: The Ki was 0.31 µM.

Q: Which Ki [4] does the source give for `NC(=O)CN(CCc1ccccc1)C(=O)CN(C(=O)CNCCc1ccc(O)cc1)c1ccc(Oc2ccccc2)cc1` here?
A: Its Ki is 0.14 µM.
